{"source": "paper PMC12434308", "about": "(Nature chemical biology, 2021)", "key": {"control lentivirus": {"tested_on": "control lentivirus", "type": "cell-based"}, "[1]": {"tested_on": "SARS-CoV-2 pseudotyped lentivirus", "type": "cell-based"}, "ACE2": {"tested_on": "ACE2", "experiment": "anti-ACE2 antibody staining by flow cytometry", "type": "cell-based, human", "details": "ACE2+ HEK293 cells, 3FNeu5Ac treatment"}, "ACE2+ HEK293 cells [2]": {"tested_on": "ACE2+ HEK293 cells", "experiment": "SNA and PNA lectin staining by flow cytometry", "type": "cell-based", "details": "3 d treatment, 300 μM"}, "ACE2+ HEK293 cells [3]": {"tested_on": "ACE2+ HEK293 cells", "experiment": "fluorescent SARS-CoV-2 RBD trimer binding by flow cytometry", "type": "cell-based"}, "Vero-E6 cells": {"tested_on": "Vero-E6 cells", "type": "cell-based"}, "SARS-CoV-2 S1 protein": {"molecular_target": "SARS-CoV-2 S1 protein", "details": "model sialylated species; cited from earlier work"}, "SARS-CoV-2 RBD [4]": {"molecular_target": "T1, SARS-CoV-2 RBD (Severe acute respiratory syndrome coronavirus 2, UniProt P0DTC2)"}, "RBD": {"molecular_target": "RBD", "details": "read-out: Kd for the RBD; glycan immobilized, average MW 15,700 Da; cited from earlier work"}, "[5]": {"tested_on": "ferret lung tissue sections"}, "SARS-CoV-2 RBD [6]": {"molecular_target": "T1, SARS-CoV-2 RBD", "remark": "listed apart in the source"}, "SARS-CoV-2 S protein": {"molecular_target": "SARS-CoV-2 S protein (Severe acute respiratory syndrome coronavirus 2, UniProt P0DTC2)"}}}
{"molecule": "CC(=O)N[C@H]1[C@H]([C@H](O)[C@H](O)CO)O[C@](O)(C(=O)O)C(F)[C@@H]1O", "note": "(some centres unmarked) [3FNeu5Ac]", "values": [{"measurement": "viral entry of control lentivirus", "setting": "control lentivirus", "result": "no differences were observed"}, {"measurement": "decrease in pseudotyped lentivirus infectivity", "setting": "[1]", "result": "30–40%"}, {"measurement": "ACE2 levels after ST inhibition", "setting": "ACE2", "result": "did not alter"}, {"measurement": "Sia on the cell surface (SNA and PNA staining)", "setting": "ACE2+ HEK293 cells [2]", "result": "substantially decreased"}, {"measurement": "RBD binding to treated cells", "setting": "ACE2+ HEK293 cells [3]; 300 μM, 72 h", "result": "consistently decreased"}, {"measurement": "RBD binding to treated Vero-E6 cells", "setting": "Vero-E6 cells", "result": "decrease in RBD binding"}]}
{"molecule": "CC(=O)N[C@H]1[C@H]([C@H](O)[C@H](O)CO)O[C@@](O[C@H]2[C@@H](O)[C@@H](CO)O[C@@H](O[C@H]3[C@H](O)[C@@H](O)C(O)O[C@@H]3CO)[C@@H]2O)(C(=O)O)C[C@@H]1O", "note": "(some centres unmarked) [3′-sialyllactose]", "values": [{"measurement": "Kd", "setting": "SARS-CoV-2 S1 protein", "result": "millimolar"}]}
{"molecule": "CCCCCCCCC(=O)N[C@H](CN1CCCC1)[C@H](O)c1ccc2c(c1)OCCO2", "note": "[GENZ-123346]", "values": [{"measurement": "infection of control lentivirus", "setting": "control lentivirus", "result": "did not show differences"}, {"measurement": "pseudotyped viral infection of glycolipid-depleted cells", "setting": "[1]", "result": "significant decreases"}, {"measurement": "pseudoviral entry", "setting": "[1]", "result": "failed to elicit an effect"}, {"measurement": "SARS-CoV-2 RBD binding to glycolipid-depleted cells", "setting": "ACE2+ HEK293 cells [3]; 5 μM, 48 h", "result": "significant decreases"}]}
{"molecule": "COC1(C(=O)O)CC(O)C(NC(C)=O)C(C(O)C(O)CO)O1", "note": "(stereo not drawn) [MeαNeu5Ac, methyl α-sialoside]", "values": [{"measurement": "relative abundance of released 69 on addition of competitor", "setting": "SARS-CoV-2 RBD [4]", "result": "qualitatively similar results as 41"}]}
{"molecule": "Galα(1-3)[Fucα(1-2)]Galβ(1-4)[Fucα(1-3)]Glc [glycan 87]", "values": [{"measurement": "ligand released from RBD in presence of excess MeαNeu5Ac", "setting": "SARS-CoV-2 RBD [4]", "result": "most abundant ligand released"}]}
{"molecule": "heparin", "values": [{"measurement": "Kd", "setting": "RBD", "result": 1000, "unit": "nM"}]}
{"molecule": "neuraminidase from Vibrio cholerae", "values": [{"measurement": "decrease of SARS-CoV-2 RBD binding", "setting": "Vero-E6 cells", "result": "~80", "unit": "%"}, {"measurement": "decrease of SARS-CoV-2 RBD binding", "setting": "[5]", "result": "~80", "unit": "%"}]}
{"molecule": "α-D-Neu5Ac-(2→3)-β-D-Gal-(1→3)-β-D-GalNAc-(1→4)-[α-D-Neu5Ac-(2→3)]-β-D-Gal-(1→4)-β-D-Glc-ceramide [GD1a]", "values": [{"measurement": "ganglioside ions released from RBD complexes (nanodisc)", "setting": "SARS-CoV-2 RBD [6]", "result": "no signals"}]}
{"molecule": "α-D-Neu5Ac-(2→3)-β-D-Gal-(1→4)-β-D-Glc-ceramide [GM3]", "values": [{"measurement": "ganglioside ions released from RBD complexes (nanodisc)", "setting": "SARS-CoV-2 RBD [6]", "result": "measured"}]}
{"molecule": "α-Gal-Lewis X [glycan 50]", "values": [{"measurement": "relative CaR-ESI-MS response of ligand released from S protein", "setting": "SARS-CoV-2 S protein", "result": "enhanced"}]}
{"molecule": "α-Neu5Ac-(2→3)-β-D-Gal-(1→3)-β-D-GalNAc-(1→4)-[α-Neu5Ac-(2→8)-α-Neu5Ac-(2→3)]-β-D-Gal-(1→4)-β-D-Glc-ceramide [GT1b]", "values": [{"measurement": "ganglioside ions released from RBD complexes (nanodisc)", "setting": "SARS-CoV-2 RBD [6]", "result": "no signals"}]}
{"molecule": "β-D-Gal-(1→3)-β-D-GalNAc-(1→4)-[α-D-Neu5Ac-(2→3)]-β-D-Gal-(1→4)-β-D-Glc-ceramide [GM1]", "values": [{"measurement": "ganglioside ions released from RBD complexes (nanodisc)", "setting": "SARS-CoV-2 RBD [6]", "result": "measured"}]}
{"molecule": "β-D-GalNAc-(1→4)-[α-D-Neu5Ac-(2→3)]-β-D-Gal-(1→4)-β-D-Glc-ceramide [GM2]", "values": [{"measurement": "ganglioside ions released from RBD complexes (nanodisc)", "setting": "SARS-CoV-2 RBD [6]", "result": "measured"}]}
{"molecule": "β-D-GalNAc-(1→4)-[α-D-Neu5Ac-(2→8)-α-D-Neu5Ac-(2→3)]-β-D-Gal-(1→4)-β-D-Glc-ceramide [GD2]", "values": [{"measurement": "ganglioside ions released from RBD complexes (nanodisc)", "setting": "SARS-CoV-2 RBD [6]", "result": "no signals"}]}
